For 26 molecules, IC50 results are on record in patent US20250084074A1, “SUBSTITUTED HETEROCYCLES AS HSET INHIBITORS” (MERCK PATENT GMBH, priority 2022, published 2025).

Chain of HSET full length protein (Q9BW19 whole entry): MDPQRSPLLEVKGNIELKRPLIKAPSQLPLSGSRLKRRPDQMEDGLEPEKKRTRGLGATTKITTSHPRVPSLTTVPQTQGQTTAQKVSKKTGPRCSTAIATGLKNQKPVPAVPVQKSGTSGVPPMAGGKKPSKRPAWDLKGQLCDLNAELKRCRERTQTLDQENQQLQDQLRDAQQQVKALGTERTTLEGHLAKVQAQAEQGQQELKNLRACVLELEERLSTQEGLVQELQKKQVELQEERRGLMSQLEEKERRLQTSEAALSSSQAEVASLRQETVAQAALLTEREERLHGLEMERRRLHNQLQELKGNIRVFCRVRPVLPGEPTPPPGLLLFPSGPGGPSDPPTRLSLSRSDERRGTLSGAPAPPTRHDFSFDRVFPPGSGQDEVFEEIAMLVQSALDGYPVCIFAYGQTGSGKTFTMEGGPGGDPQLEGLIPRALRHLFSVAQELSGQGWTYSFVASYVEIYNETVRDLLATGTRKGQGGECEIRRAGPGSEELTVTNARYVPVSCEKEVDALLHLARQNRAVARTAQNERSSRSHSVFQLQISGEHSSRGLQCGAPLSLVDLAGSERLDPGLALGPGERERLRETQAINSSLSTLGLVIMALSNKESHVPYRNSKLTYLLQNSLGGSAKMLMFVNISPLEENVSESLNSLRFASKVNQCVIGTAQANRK

The assay deals with HSET full length protein (Homo sapiens (Human), UniProt Q9BW19). Nature of the assay: HSET ADP-Glo Assay S - 3 μM ATP. It is filed as biochemical. To be noted: 5 nM HSET, 70 μg/mL microtubule, 80 min at rt, read-out: COMBINED HSET ADP GLO IC50. The procedure, abridged:
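ADP-Glo luminescence read-out: ATPase reaction at 3 μM ATP, 80 min at room temperature, after a 10 min compound preincubation. Enzyme was full-length human HSET at 5 nM, stimulated by 70 μg/mL paclitaxel-stabilised bovine microtubules in HEPES pH 6.8 buffer with MgCl2, EGTA, Triton X-100 and DTT.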
(ADP-Glo turns the ADP formed in a reaction into a luminescent signal.)
Usually IC50 stands for the concentration that gives 50% inhibition. Turning to `CCCOC(=O)c1sc(C(=O)NCCNc2nccc3ccc(-c4noc(C)n4)cc23)nc1C` [Example 70, Propyl 4-methyl-2-((2-((7-(5-methyl-1,2,4-oxadiazol-3-yl)isoquinolin-1-yl)amino)ethyl)carbamoyl)thiazole-5-carboxylate], the IC50 is 11 nM. The value for `CCOC(=O)c1cc(C(=O)NCCNc2nccc3ccc(-c4noc(C)n4)cc23)nn1C` [Example 71, Ethyl 1-methyl-3-((2-((7-(5-methyl-1,2,4-oxadiazol-3-yl)isoquinolin-1-yl)amino)ethyl)carbamoyl)-1 H-pyrazole-5-carboxylate] was 10900 nM.

With `CCCOC(=O)c1cc(C(=O)NCCNc2nccc3ccc(-c4noc(C)n4)cc23)nn1C` [Example 72, Propyl 1-methyl-3-((2-((7-(5-methyl-1,2,4-oxadiazol-3-yl)isoquinolin-1-yl)amino)ethyl)carbamoyl)-1 H-pyrazole-5-carboxylate], the IC50 came out at 4310 nM. In the case of `CCCNC(=O)c1cc(NC(=O)CCNc2nccc3ccc(-c4noc(C)n4)cc23)nn1C` [Example 73, 1-Methyl-3-(3-((7-(5-methyl-1,2,4-oxadiazol-3-yl)isoquinolin-1-yl)amino)propanamido)-N-propyl-1 H-pyrazole-5-carboxamide], the IC50 was determined as 3890 nM. To `CCCOC(=O)c1sc(C(=O)N(C)CCNc2nccc3ccc(-c4noc(C)n4)cc23)nc1C` [Example 74, Propyl 4-methyl-2-(methyl(2-((7-(5-methyl-1,2,4-oxadiazol-3-yl)isoquinolin-1-yl)amino)ethyl)carbamoyl)thiazole-5-carboxylate] belongs 272 nM. To `CCc1cc(NC(=O)CCNc2nccc3ccc(-c4noc(C)n4)cc23)nn1C` [Example 76] belongs 8310 nM; to `Cc1nc(-c2ccc3ccnc(NCCC(=O)Nc4cc(C(C)(C)C)on4)c3c2)no1` [Example 77, N-(5-(tert-butyl)isoxazol-3-yl)-3-((7-(5-methyl-1,2,4-oxadiazol-3-yl)isoquinolin-1-yl)amino)propenamide], 556 nM; to `Cc1nc(-c2ccc3ccnc(NCCC(=O)Nc4cc(C5CC5)on4)c3c2)no1` [Example 78], 1500 nM. `CCc1cc(NC(=O)CCNc2nccc3ccc(-c4noc(C)n4)cc23)no1` [Example 79, N-(5-ethylisoxazol-3-yl)-3-((7-(5-methyl-1,2,4-oxadiazol-3-yl)isoquinolin-1-yl)amino)propanamide]: the 50% inhibitory concentration (IC50) came to 4340 nM.

`Cc1nc(-c2ccc3ccnc(NCCC(=O)Nc4ncc(C(C)(C)C)s4)c3c2)no1` [Example 80, N-(5-(tert-butyl)thiazol-2-yl)-3-((7-(5-methyl-1,2,4-oxadiazol-3-yl)isoquinolin-1-yl)amino)propanamide]: the IC50 stood at 201 nM. The value for `CCc1nc(NC(=O)CCNc2nccc3ccc(-c4noc(C)n4)cc23)sc1C(C)(C)C` [Example 81, N-(5-(tert-butyl)-4-ethylthiazol-2-yl)-3-((7-(5-methyl-1,2,4-oxadiazol-3-yl)isoquinolin-1-yl)amino)propanamide] was 21 nM. Turning to `Cc1nc(-c2ccc3ccnc(NCCC(=O)Nc4cc(C(C)(C)C)n(C)n4)c3c2)no1` [Example 82, N-(5-(tert-butyl)-1-methyl-1 H-pyrazol-3-yl)-3-((7-(5-methyl-1,2,4-oxadiazol-3-yl)isoquinolin-1-yl)amino)propanamide], the IC50 was 1480 nM. With `COC1(c2sc(NC(=O)CCNc3nccc4ccc(-c5noc(C)n5)cc34)nc2C)COC1` [Example 83, N-[5-(3-methoxyoxetan-3-yl)-4-methyl-thiazol-2-yl]-3-[[7-(5-methyl-1,2,4-oxadiazol-3-yl)-1-isoquinolyl]amino]propanamide], the IC50 was 1680 nM. Take `CCCOC1(c2sc(NC(=O)CCNc3nccc4ccc(-c5noc(C)n5)cc34)nc2C)COC1` [Example 84]: the IC50 came to 57 nM.

Consider `CCCN(C)C(=O)c1sc(NC(=O)CCNc2nccc3ccc(-c4noc(C)n4)cc23)nc1C` [Example 85, N,4-dimethyl-2-[3-[[7-(5-methyl-1,2,4-oxadiazol-3-yl)-1-isoquinolyl]amino]propanoylamino]-N-propyl-thiazole-5-carboxamide], for which the 50% inhibitory concentration (IC50) came out at 1740 nM. Regarding `Cc1nc(-c2ccc3ccnc(NCCC(=O)Nc4ncc(C5=CCCCC5)s4)c3c2)no1` [Example 86], the IC50 was found to be 848 nM. Turning to `COC1(c2cnc(NC(=O)CCNc3nccc4ccc(-c5noc(C)n5)cc34)s2)CCCCC1` [Example 87], the IC50 was determined as 9380 nM. Consider `CCOC(=O)c1sc(NC(=O)CCNC(=O)c2cccc(-c3noc(C)n3)c2)nc1C(C)C` [Example 88, Ethyl 4-isopropyl-2-[3-[[3-(5-methyl-1,2,4-oxadiazol-3-yl)benzoyl]amino]propanoylamino]thiazole-5-carboxylate], for which the IC50 is 477 nM. To `Cc1nc(NC(=O)CCNC(=O)c2cccc(-c3cnn(C)c3)c2)sc1C(=O)OC(C)(C)C` [Example 89, tert-Butyl-4-methyl-2-(3-(3-(1-methyl-1 H-pyrazol-4-yl)benzamido)propanamido)thiazole-5-carboxylate] belongs 391 nM; to `CCc1nc(NC(=O)CCNC(=O)c2cccc(-c3noc(C)n3)c2)sc1C(=O)OC` [Example 90, Methyl 4-ethyl-2-[3-[[3-(5-methyl-1,2,4-oxadiazol-3-yl)benzoyl]amino]propanoylamino]thiazole-5-carboxylate], 556 nM. To `CCOC(=O)c1sc(NC(=O)CCNC(=O)c2cccc(-c3noc(C)n3)c2)nc1C(F)(F)F` [Example 91, Ethyl 2-[3-[[3-(5-methyl-1,2,4-oxadiazol-3-yl)benzoyl]amino]propanoylamino]-4-(trifluoromethyl)thiazole-5-carboxylate] belongs 415 nM; to `CCOC(=O)c1sc(NC(=O)CCNC(=O)c2cccc(-c3noc(C)n3)c2)nc1CC` [Example 92, Ethyl 4-ethyl-2-[3-[[3-(5-methyl-1,2,4-oxadiazol-3-yl)benzoyl]amino]propanoylamino]thiazole-5-carboxylate], 45 nM; to `Cc1nc(-c2cccc(C(=O)NCCC(=O)Nc3nc(C)c(/C=C/C4CCCC4)s3)c2)no1` [Example 93, N-[3-[[5-[(E)-2-cyclopentylvinyl]-4-methyl-thiazol-2-yl]amino]-3-oxo-propyl]-3-(5-methyl-1,2,4-oxadiazol-3-yl)benzamide], 691 nM. For `COC/C=C/c1sc(NC(=O)CCNC(=O)c2cccc(-c3noc(C)n3)c2)nc1C` [Example 94, N-[3-[[5-[(E)-3-methoxyprop-1-enyl]-4-methyl-thiazol-2-yl]amino]-3-oxo-propyl]-3-(5-methyl-1,2,4-oxadiazol-3-yl)benzamide], the 50% inhibitory concentration (IC50) came to 13400 nM.

As for `C=C(c1ccccc1)c1sc(NC(=O)CCNC(=O)c2cccc(-c3noc(C)n3)c2)nc1C` [Example 95, 3-(5-Methyl-1,2,4-oxadiazol-3-yl)-N-[3-[[4-methyl-5-(1-phenylvinyl)thiazol-2-yl]amino]-3-oxo-propyl]benzamide], the IC50 came out at 823 nM. To `Cc1nc(-c2ccc3ccnc(N[C@H]4C[C@@H](C(=O)Nc5ncc(C(F)(F)C(F)(F)F)s5)C4)c3c2)no1` [Example 96, 3-[[7-(5-methyl-1,2,4-oxadiazol-3-yl)-1-isoquinolyl]amino]-N-[5-(1,1,2,2,2-pentafluoroethyl)thiazol-2-yl]cyclobutanecarboxamide] belongs 2190 nM.
